Measurements as given in patent publication US4409210A, “Antibiotic compound” (priority 1982, dated 1983).
In brackets after ≈: the same amount, converted by molar mass.

Experiments:
Format in all cases: cell-based
[1] = system: Staphylococcus aureus A9748; test: MIC, serial two-fold dilution method (aerobic)
[2] = system: Staphylococcus aureus A20239; test: MIC, serial two-fold dilution method (aerobic)
[3] = system: Staphylococcus aureus A20701; test: MIC, serial two-fold dilution method (aerobic)
[4] = system: Streptococcus pyogenes S-23; test: MIC, serial two-fold dilution method (aerobic)
[5] = system: Streptococcus pneumoniae A15069; test: MIC, serial two-fold dilution method (aerobic)
Sarcina lutea PCI-1001 = test: MIC, serial two-fold dilution method (aerobic)
Escherichia coli NIHJ = test: MIC, serial two-fold dilution method (aerobic)
[6] = system: Klebsiella pneumoniae D-11; test: MIC, serial two-fold dilution method (aerobic)
Proteus mirabilis A9554 = test: MIC, serial two-fold dilution method (aerobic)
[7] = system: Clostridium acidiurici A9560; test: MIC, serial two-fold dilution method (anaerobic)
[8] = system: Clostridium chauvoei A9561; test: MIC, serial two-fold dilution method (anaerobic)
Method: (§1) The minimum inhibitory concentration (MIC) of Bu-2517 was determined for a variety of aerobic and anaerobic bacteria by the serial two-fold dilution method using a multi-inoculating apparatus. Mueller-Hinton agar was generally used for aerobic bacteria, GC medium (Eiken) for fastidious aerobic organisms such as streptococci, Neisseria and Haemophilus species, and GAM agar medium (Nissui) for anaerobic bacteria. The inoculum size was adjusted to 10^6 CFU/ml for streptococci, Neisseria and Haemophilus species, 10^4 for other aerobic bacteria and 10^7 -10^8 for all anaerobic organisms. Amphomycin, ampicillin, chloramphenicol, clindamycin, erthromycin, kanamycin and vancomycin were used as reference antibiotics.

[9] = system: Clostridium difficile A21675; test: MIC, serial two-fold dilution method (anaerobic)
Method: as §1

[10] = system: Clostridium difficile A21972; test: MIC, serial two-fold dilution method (anaerobic)
Method: as §1

[11] = system: Clostridium septicum A21869; test: MIC, serial two-fold dilution method (anaerobic)
Method: as §1

[12] = system: Clostridium perfringens A9635; test: microbe, parasite or virus in culture
[13] = system: Clostridium ramosum A21970; test: MIC, serial two-fold dilution method (anaerobic)
[14] = system: Propionibacterium acnes A22650; test: MIC, serial two-fold dilution method (anaerobic)
[15] = system: Peptostreptococcus anaerobius A21905; test: MIC, serial two-fold dilution method (anaerobic)
[16] = system: Peptococcus magnas A21676; test: MIC, serial two-fold dilution method (anaerobic)
[17] = system: Bacteroides fragilis CUH-9; test: MIC, serial two-fold dilution method (anaerobic)
[18] = system: Bacteroides fragilis A20926; test: MIC, serial two-fold dilution method (anaerobic)
[19] = system: Bacteroides fragilis A22533; test: MIC, serial two-fold dilution method (anaerobic)
[20] = system: Bacteroides fragilis A22695; test: MIC, serial two-fold dilution method (anaerobic)
[21] = system: Fusobacterium necrophorum A20013; test: MIC, serial two-fold dilution method (anaerobic)
[22] = system: Veillonella alcalescens A21914-1; test: MIC, serial two-fold dilution method (anaerobic)

Q: With `CN[C@H](CC(C)C)C(=O)N[C@H]1C(=O)N[C@@H](CC(N)=O)C(=O)N[C@H]2C(=O)N[C@H]3C(=O)N[C@H](C(=O)N[C@H](C(=O)O)c4cc(O)cc(O)c4-c4cc3ccc4O)[C@H](O)c3ccc(c(Cl)c3)Oc3cc2cc(c3O[C@@H]2O[C@H](CO)[C@@H](O)[C@H](O)[C@H]2O[C@H]2C[C@](C)(N)[C@H](O)[C@H](C)O2)Oc2ccc(cc2Cl)[C@H]1O` [Vancomycin] as the molecule, how does the MIC ([1]; Staphylococcus aureus, A9748, read-out: minimum inhibitory concentration (MIC)) read?
A: 0.8 µg/mL (≈ 0.552 µM)

Q: And the MIC ([2]; Staphylococcus aureus, A20239, read-out: minimum inhibitory concentration (MIC))?
A: 1.6 µg/mL (≈ 1.1 µM)

Q: What about the MIC ([3]; Staphylococcus aureus, A20701, read-out: minimum inhibitory concentration (MIC)) of the same molecule?
A: 0.8 µg/mL (≈ 0.552 µM)

Q: And the MIC ([4]; Streptococcus pyogenes, S23, read-out: minimum inhibitory concentration (MIC))?
A: 0.8 µg/mL (≈ 0.552 µM)

Q: And the MIC ([5]; Streptococcus pneumoniae, A15069, read-out: minimum inhibitory concentration (MIC))?
A: 0.4 µg/mL (≈ 0.276 µM)

Q: What about the MIC (Sarcina lutea PCI-1001; Micrococcus luteus, PCI1001, read-out: minimum inhibitory concentration (MIC)) of the same molecule?
A: 0.4 µg/mL (≈ 0.276 µM)

Q: What about the MIC (Escherichia coli NIHJ; Escherichia coli, read-out: minimum inhibitory concentration (MIC)) of the same molecule?
A: > 100 µg/mL

Q: And the MIC ([6]; Klebsiella pneumoniae, D11, read-out: minimum inhibitory concentration (MIC))?
A: > 100 µg/mL

Q: What about the MIC (Proteus mirabilis A9554; Proteus mirabilis, A9554, read-out: minimum inhibitory concentration (MIC)) of the same molecule?
A: > 100 µg/mL

Q: What about the MIC ([7]; Gottschalkia acidurici, A9560, read-out: minimum inhibitory concentration (MIC)) of the same molecule?
A: 0.8 µg/mL (≈ 0.552 µM)

Q: And the MIC ([8]; Clostridium chauvoei, A9561, read-out: minimum inhibitory concentration (MIC))?
A: 0.8 µg/mL (≈ 0.552 µM)

Q: What about the MIC ([9]; Clostridioides difficile, A21675, read-out: minimum inhibitory concentration (MIC)) of the same molecule?
A: 0.8 µg/mL (≈ 0.552 µM)

Q: What about the MIC ([10]; Clostridioides difficile, A21972, read-out: minimum inhibitory concentration (MIC)) of the same molecule?
A: 1.6 µg/mL (≈ 1.1 µM)

Q: What about the MIC ([11]; Clostridium septicum, A21869, read-out: minimum inhibitory concentration (MIC)) of the same molecule?
A: 0.8 µg/mL (≈ 0.552 µM)

Q: What about the MIC ([12]; Clostridium perfringens, A9635, read-out: minimum inhibitory concentration (MIC)) of the same molecule?
A: 1.6 µg/mL (≈ 1.1 µM)

Q: And the MIC ([13]; Thomasclavelia ramosa, A21970, read-out: minimum inhibitory concentration (MIC))?
A: > 100 µg/mL

Q: What about the MIC ([14]; Cutibacterium acnes, A22650, read-out: minimum inhibitory concentration (MIC)) of the same molecule?
A: 0.8 µg/mL (≈ 0.552 µM)

Q: What about the MIC ([15]; Peptostreptococcus anaerobius, A21905, read-out: minimum inhibitory concentration (MIC)) of the same molecule?
A: 0.4 µg/mL (≈ 0.276 µM)

Q: What about the MIC ([16]; read-out: minimum inhibitory concentration (MIC)) of the same molecule?
A: < 0.05 µg/mL

Q: And the MIC ([17]; Bacteroides fragilis, CUH9, read-out: minimum inhibitory concentration (MIC))?
A: 50 µg/mL (≈ 34.5 µM)

Q: And the MIC ([18]; Bacteroides fragilis, A20926, read-out: minimum inhibitory concentration (MIC))?
A: 3.1 µg/mL (≈ 2.14 µM)

Q: What about the MIC ([19]; Bacteroides fragilis, A22533, read-out: minimum inhibitory concentration (MIC)) of the same molecule?
A: 50 µg/mL (≈ 34.5 µM)

Q: And the MIC ([20]; Bacteroides fragilis, A22695, read-out: minimum inhibitory concentration (MIC))?
A: 25 µg/mL (≈ 17.3 µM)

Q: And the MIC ([21]; Fusobacterium necrophorum, A20013, read-out: minimum inhibitory concentration (MIC))?
A: > 100 µg/mL

Q: What about the MIC ([22]; Veillonella parvula, A219141, read-out: minimum inhibitory concentration (MIC)) of the same molecule?
A: 1.6 µg/mL (≈ 1.1 µM)

Q: For Amphomycin, which “minimum inhibitory concentration (MIC)” value ([1]; Staphylococcus aureus A9748, Mueller-Hinton agar, inoculum 10^4) is on record?
A: 6.3 µg/mL

Q: And the “minimum inhibitory concentration (MIC)” value ([2]; Staphylococcus aureus A20239, Mueller-Hinton agar, inoculum 10^4)?
A: 6.3 µg/mL

Q: And the “minimum inhibitory concentration (MIC)” value ([3]; Staphylococcus aureus A20701, Mueller-Hinton agar, inoculum 10^4)?
A: 6.3 µg/mL

Q: And the “minimum inhibitory concentration (MIC)” value ([4]; Streptococcus pyogenes S-23, GC medium, inoculum 10^6 CFU/ml)?
A: 12.5 µg/mL

Q: And the “minimum inhibitory concentration (MIC)” value ([5]; Streptococcus pneumoniae A15069, GC medium, inoculum 10^6 CFU/ml)?
A: 25 µg/mL

Q: And the “minimum inhibitory concentration (MIC)” value (Sarcina lutea PCI-1001; Sarcina lutea PCI-1001, Mueller-Hinton agar, inoculum 10^4)?
A: 0.8 µg/mL

Q: What about the “minimum inhibitory concentration (MIC)” value (Escherichia coli NIHJ; Escherichia coli NIHJ, Mueller-Hinton agar, inoculum 10^4) of the same molecule?
A: > 100 µg/mL

Q: And the “minimum inhibitory concentration (MIC)” value ([6]; Klebsiella pneumoniae D-11, Mueller-Hinton agar, inoculum 10^4)?
A: > 100 µg/mL

Q: What about the “minimum inhibitory concentration (MIC)” value (Proteus mirabilis A9554; Proteus mirabilis A9554, Mueller-Hinton agar, inoculum 10^4) of the same molecule?
A: > 100 µg/mL

Q: And the “minimum inhibitory concentration (MIC)” value ([7]; Clostridium acidiurici A9560, GAM agar medium, inoculum 10^7-10^8)?
A: 3.1 µg/mL

Q: What about the “minimum inhibitory concentration (MIC)” value ([8]; Clostridium chauvoei A9561, GAM agar medium, inoculum 10^7-10^8) of the same molecule?
A: 6.3 µg/mL

Q: And the “minimum inhibitory concentration (MIC)” value ([9]; Clostridium difficile A21675, GAM agar medium, inoculum 10^7-10^8)?
A: 3.1 µg/mL

Q: And the “minimum inhibitory concentration (MIC)” value ([10]; Clostridium difficile A21972, GAM agar medium, inoculum 10^7-10^8)?
A: 25 µg/mL

Q: What about the “minimum inhibitory concentration (MIC)” value ([11]; Clostridium septicum A21869, GAM agar medium, inoculum 10^7-10^8) of the same molecule?
A: 6.3 µg/mL

Q: What about the “minimum inhibitory concentration (MIC)” value ([12]; Clostridium perfringens A9635, GAM agar medium, inoculum 10^7-10^8) of the same molecule?
A: 6.3 µg/mL

Q: And the “minimum inhibitory concentration (MIC)” value ([13]; Clostridium ramosum A21970, GAM agar medium, inoculum 10^7-10^8)?
A: 25 µg/mL

Q: And the “minimum inhibitory concentration (MIC)” value ([14]; Propionibacterium acnes A22650, GAM agar medium, inoculum 10^7-10^8)?
A: 6.3 µg/mL

Q: What about the “minimum inhibitory concentration (MIC)” value ([15]; Peptostreptococcus anaerobius A21905, GAM agar medium, inoculum 10^7-10^8) of the same molecule?
A: 3.1 µg/mL

Q: What about the “minimum inhibitory concentration (MIC)” value ([16]; Peptococcus magnas A21676, GAM agar medium, inoculum 10^7-10^8) of the same molecule?
A: 6.3 µg/mL

Q: And the “minimum inhibitory concentration (MIC)” value ([17]; Bacteroides fragilis CUH-9, GAM agar medium, inoculum 10^7-10^8)?
A: > 100 µg/mL

Q: And the “minimum inhibitory concentration (MIC)” value ([18]; Bacteroides fragilis A20926, GAM agar medium, inoculum 10^7-10^8)?
A: 50 µg/mL

Q: What about the “minimum inhibitory concentration (MIC)” value ([19]; Bacteroides fragilis A22533, GAM agar medium, inoculum 10^7-10^8) of the same molecule?
A: > 100 µg/mL

Q: And the “minimum inhibitory concentration (MIC)” value ([20]; Bacteroides fragilis A22695, GAM agar medium, inoculum 10^7-10^8)?
A: > 100 µg/mL

Q: What about the “minimum inhibitory concentration (MIC)” value ([21]; Fusobacterium necrophorum A20013, GAM agar medium, inoculum 10^7-10^8) of the same molecule?
A: > 100 µg/mL

Q: And the “minimum inhibitory concentration (MIC)” value ([22]; Veillonella alcalescens A21914-1, GAM agar medium, inoculum 10^7-10^8)?
A: 25 µg/mL
